In brackets after ≈: the same amount, converted by molar mass.
Test: Evaluation of solubility in mesitylene
Type: physicochemical
Conditions: organic solvent or mixture, thermodynamic from solid; 10 mg compound in test tube, heated at 160° C., mesitylene added until completely dissolved
Procedure: 10 mg of the obtained Compounds D1 to D9 and Comparative Compound C1 were each placed in a test tube, mesitylene was added thereto, and were heated at a temperature of 160° C. Mesitylene was added thereto until the compounds were completely dissolved and the solubility was calculated.

In the case of CC(C)(C)c1cc(-c2ccc3c4c5c6cccc(-c7ccccc7)c6n6c7cc(-c8cc(C(C)(C)C)cc(C(C)(C)C)c8)ccc7c(c7c8cccc(-c9ccccc9)c8n(c3c2)c47)c56)cc(C(C)(C)C)c1 [Compound D9], the solubility is reported as 3000 µg/mL (≈ 3.21 mM).
Work on CC(C)(C)c1cc(-c2cccc3c4c5c6ccccc6n6c7c(-c8cc(C(C)(C)C)cc(C(C)(C)C)c8)cccc7c(c7c8ccccc8n(c23)c74)c56)cc(C(C)(C)C)c1 [Compound D8] yielded a solubility of 10300 µg/mL (≈ 13.2 mM).
With CC(C)(C)c1cc(-c2ccc3c4c5c6cc(C(C)(C)C)ccc6n6c7cc(-c8cc(C(C)(C)C)cc(C(C)(C)C)c8)ccc7c(c7c8cc(C(C)(C)C)ccc8n(c3c2)c74)c56)cc(C(C)(C)C)c1 [Compound D6] the solubility was 1000 µg/mL (≈ 1.12 mM).
CC(C)(C)c1ccc(-c2ccc3c(c2)c2c4c5ccccc5n5c6ccc(-c7ccc(C(C)(C)C)cc7)cc6c(c6c7ccccc7n3c62)c45)cc1 [Compound D2] showed a solubility of 1300 µg/mL (≈ 1.94 mM).
Compound Cc1cc(C)c(-c2ccc3c(c2)c2c4c5ccccc5n5c6ccc(-c7c(C)cc(C)cc7C)cc6c(c6c7ccccc7n3c62)c45)c(C)c1 [Compound D1] has a solubility of 2000 µg/mL (≈ 3.12 mM).
Compound CC(C)(C)c1ccc(-c2ccc3c4c5c6ccccc6n6c7cc(-c8ccc(C(C)(C)C)cc8)ccc7c(c7c8ccccc8n(c3c2)c74)c56)cc1 [Compound D3] has a solubility of 1000 µg/mL (≈ 1.5 mM).
Compound CC(C)(C)c1cc(-c2ccc3c4c5c6ccc(C(C)(C)C)cc6n6c7cc(-c8cc(C(C)(C)C)cc(C(C)(C)C)c8)ccc7c(c7c8ccc(C(C)(C)C)cc8n(c3c2)c47)c56)cc(C(C)(C)C)c1 [Compound D5] has a solubility of 10100 µg/mL (≈ 11.3 mM).
In the case of c1ccc(-c2cccc(-c3ccccc3)c2-c2ccc3c4c5c6ccccc6n6c7cc(-c8c(-c9ccccc9)cccc8-c8ccccc8)ccc7c(c7c8ccccc8n(c3c2)c74)c56)cc1 [Compound D7], the solubility is reported as 3100 µg/mL (≈ 3.6 mM).
CC(C)(C)c1cc(-c2ccc3c4c5c6ccccc6n6c7cc(-c8cc(C(C)(C)C)cc(C(C)(C)C)c8)ccc7c(c7c8ccccc8n(c3c2)c74)c56)cc(C(C)(C)C)c1 [Compound D4] showed a solubility of 3200 µg/mL (≈ 4.1 mM).

— patent US20220213113A1, “NITROGEN-CONTAINING CONDENSED CYCLIC COMPOUNDS, FLUORESCENCE EMITTERS, ORGANIC ELECTROLUMINESCENT DEVICES, AND MATERIALS FOR ORGANIC ELECTROLUMINESCENT DEVICES” (Samsung Electronics Co., Ltd., priority 2020, published 2022)
